Results from patent publication US9561276B2, “Method of treating onychomycosis” (DUSA PHARMACEUTICALS, INC., priority 2012, dated 2017).
Structures can show the parent of a compound that is named as a salt.

How the values were obtained:
[1] = tested on: onychomycosis; settings: cited from earlier work
[2] = tested on: acne lesions; settings: in vivo; cited from earlier work
[3] = tested on: onychomycosis of the toenail; settings: in vivo; cited from earlier work
[4] = tested on: onychomycosis of the toenail; test: ALA-based PDT of onychomycosis with 10 day delay before red light (Example 1)
Method: A 5 percent ALA solution was prepared by dilution of 20 percent ALA Topical Solution (Levulan® Kerastick® (aminolevulinic acid HCl) for Topical Solution, 20%). The ALA solution was then applied to a healthy volunteer suffering from mild to moderate onychomycosis involving the hallux (proximal or big toe) toenail and the second toenail of the left foot. The ALA solution was applied liberally to the nail surface and the periungual skin areas. The entire toe was wrapped in an occlusive dressing (Tegaderm®) for 12 hours. Twenty-four hours post ALA application, the treated area was examined for porphryin fluorescence using a long wave UV light (Wood's Light) as an excitation source.
The subject was instructed to avoid light exposure to the treated toes. Fluorescence evaluation was performed again 10 days post ALA application.
The subject was then treated with 100 Joules/cm^2 of red light using the Sciencetech 7500 illuminator, causing an activation reaction.
The subject was again instructed to avoid light exposure to the treated toes. Follow up evaluations were performed 5 and 20 days post light treatment (15 and 30 days post ALA application).

[5] = tested on: mouse skin; settings: cited from earlier work
[6] = 100 Joules/cm^2 red light 10 days post ALA

| Structure (SMILES) | adverse events unrelated to the treatment site ([1]; in vivo, po) | complete clearance ([1]; oral, complete course of treatment (every day for three months)) | time until ability of light to specifically excite protoporphyrin IX disappeared [2] [h] | local adverse reaction [3] | sensation during light treatment, proximal toe [4, 6] | sensation during light treatment, second toe [4, 6] | local reaction (edema, redness), proximal toe ([4]; 5 days post light treatment) | local reaction (redness), second toe ([4]; 5 days post light treatment) | appearance of treated toes ([4]; 20 days after exposure to the activating red light) | adverse effects associated with the treatment ([4]; noted by subject) | time for protoporphyrin levels to return to near pretreatment baseline [5] | time to peak protoporphyrin IX concentration [5] |
| --- | --- | --- | --- | --- | --- | --- | --- | --- | --- | --- | --- | --- |
| CN(C/C=C/C#CC(C)(C)C)Cc1cccc2ccccc12 [terbinafine, terbinafine hydrochloride] | gastrointestinal disorders, rashes, disruption of the sense of taste, and liver disorders | only a minority of cases | – | – | – | – | – | – | – | – | – | – |
| NCC(=O)CCC(=O)O [ALA, aminolevulinic acid] | – | – | ≤ 24 | redness and edema (swelling) | only mild tingling and slight stinging | little to no sensation | only slight edema in the area around the nail plate, and mild redness of the nail bed itself | only slight redness in the nail bed | both treated toes appeared normal | no adverse effects | about 18 hours | about six |
